Data on 5 compounds can be found in ChEMBL document CHEMBL3526076, “Species-dependent and receptor-selective action of bilobalide on the function of constitutive androstane receptor and pregnane X receptor” (Drug Metab Dispos, 2012).

The target in data set [1] is T1, Nuclear receptor subfamily 1 group I member 3 (Homo sapiens, UniProt Q14994).
T1 sequence (Q14994 whole entry): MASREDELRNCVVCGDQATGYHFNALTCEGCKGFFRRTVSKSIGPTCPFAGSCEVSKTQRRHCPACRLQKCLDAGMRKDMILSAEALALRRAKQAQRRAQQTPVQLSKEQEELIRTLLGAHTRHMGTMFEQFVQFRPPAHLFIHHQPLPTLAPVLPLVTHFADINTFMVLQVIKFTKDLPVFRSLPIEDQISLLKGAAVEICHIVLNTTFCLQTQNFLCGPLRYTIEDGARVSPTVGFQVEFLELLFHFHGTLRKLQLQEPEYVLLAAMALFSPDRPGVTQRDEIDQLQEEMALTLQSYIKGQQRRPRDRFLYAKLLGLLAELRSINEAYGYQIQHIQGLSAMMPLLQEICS
Description: Activation of human CAR expressed in human HepG2 cells coexpressing CYP2B6 at 10 uM after 24 hrs by dual luciferase reporter gene assay. Format: ADME, cell-based. Conditions: hepg2, 24 h; call rule not given here. For orientation: A reporter such as luciferase makes a cellular process visible.

The target of data set [2] is T2, Nuclear receptor subfamily 1 group I member 3 (Rattus norvegicus, UniProt Q9QUS1).
T2 sequence (Q9QUS1 whole entry): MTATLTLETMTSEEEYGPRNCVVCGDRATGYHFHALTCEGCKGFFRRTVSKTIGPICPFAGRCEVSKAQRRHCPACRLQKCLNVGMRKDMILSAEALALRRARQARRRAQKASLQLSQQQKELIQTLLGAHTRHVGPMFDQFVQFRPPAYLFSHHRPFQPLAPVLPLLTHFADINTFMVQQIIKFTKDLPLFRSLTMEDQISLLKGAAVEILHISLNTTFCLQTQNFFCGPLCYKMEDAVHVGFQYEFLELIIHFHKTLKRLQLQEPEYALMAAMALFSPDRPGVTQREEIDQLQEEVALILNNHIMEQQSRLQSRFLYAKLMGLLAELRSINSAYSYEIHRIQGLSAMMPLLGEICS
Description: Activation of rat CAR expressed in rat hepatocytes coexpressing CYP2B1 at 1 uM after 24 hrs by dual luciferase reporter gene assay. The format is ADME, cell-based, Hepatocyte.

Data set [3] addresses T1, Nuclear receptor subfamily 1 group I member 3. Kind of data set: Activation of human CAR expressed in rat hepatocytes coexpressing CYP2B1 at 1 uM after 24 hrs by dual luciferase reporter gene assay. The format is ADME, cell-based, Hepatocyte.
Data set [4] has the same target. Kind of data set: Activation of human CAR expressed in human HepG2 cells coexpressing CYP2B6 at 0.25 uM after 24 hrs by dual luciferase reporter gene assay. Conditions: hepg2, 24 h. The format is ADME, cell-based.
The target of data set [5] is T3, Nuclear receptor subfamily 1 group I member 2 (Homo sapiens, UniProt O75469).
T3 sequence (O75469 whole entry): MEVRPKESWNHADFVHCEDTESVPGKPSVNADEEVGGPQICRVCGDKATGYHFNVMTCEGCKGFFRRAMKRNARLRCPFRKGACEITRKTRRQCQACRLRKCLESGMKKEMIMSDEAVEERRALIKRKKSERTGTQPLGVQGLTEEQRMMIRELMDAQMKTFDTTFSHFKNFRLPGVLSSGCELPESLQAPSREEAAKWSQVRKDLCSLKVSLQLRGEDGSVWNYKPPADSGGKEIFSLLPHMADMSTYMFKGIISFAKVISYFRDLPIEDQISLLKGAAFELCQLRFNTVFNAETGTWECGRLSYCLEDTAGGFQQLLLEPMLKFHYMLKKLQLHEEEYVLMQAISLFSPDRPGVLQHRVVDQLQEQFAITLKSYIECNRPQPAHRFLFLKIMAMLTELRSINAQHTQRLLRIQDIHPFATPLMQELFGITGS
Kind of data set: Antagonist activity at human PXR expressed in human HepG2 cells coexpressing CYP3A4 assessed as inhibition of rifampicin-induced receptor activation at 30 uM after 24 hrs by dual luciferase reporter gene assay. Conditions: hepg2, 24 h. The format is ADME, cell-based.

Data set [6] addresses T4, Nuclear receptor subfamily 1 group I member 2 (Rattus norvegicus, UniProt Q9R1A7).
T4 sequence (Q9R1A7 whole entry): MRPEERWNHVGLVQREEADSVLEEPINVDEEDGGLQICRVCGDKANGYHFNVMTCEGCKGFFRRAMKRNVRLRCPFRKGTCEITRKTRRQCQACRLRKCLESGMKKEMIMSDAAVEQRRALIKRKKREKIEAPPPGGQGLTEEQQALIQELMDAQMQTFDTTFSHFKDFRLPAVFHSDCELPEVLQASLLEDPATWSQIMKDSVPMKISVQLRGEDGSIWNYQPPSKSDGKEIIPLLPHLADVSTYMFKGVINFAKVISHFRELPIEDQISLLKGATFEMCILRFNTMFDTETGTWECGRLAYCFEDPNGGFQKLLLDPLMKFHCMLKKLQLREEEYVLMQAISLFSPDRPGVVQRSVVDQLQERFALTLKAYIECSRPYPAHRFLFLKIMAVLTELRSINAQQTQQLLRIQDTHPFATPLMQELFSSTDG
Description: Antagonist activity at rat PXR expressed in human HepG2 cells coexpressing CYP3A4 assessed as inhibition of PCN-induced receptor activation at 30 uM after 24 hrs by dual luciferase reporter gene assay. Format: ADME, cell-based. Conditions: hepg2, 24 h.

The target in data set [7] is T5, CYP2B activity (CAR activation) (Rattus norvegicus, UniProt Q9QUS1).
T5 sequence (Q9QUS1 whole entry): T2 sequence (Q9QUS1 whole entry)
Kind of data set: Activation of CAR in rat hepatocytes assessed as increase in CYP2B-mediated benzyloxyresorufin O-dealkylation at 100 uM after 24 hrs by spectrofluorometric analysis relative to control. Format: ADME, cell-based, Hepatocyte. Conditions: probe benzyloxyresorufin (O-dealkylation), read-out: FC.

The next data set deals with T6, CAR (CYP2B1 reporter) (Rattus norvegicus, UniProt Q9QUS1).
T6 sequence (Q9QUS1 whole entry): T2 sequence (Q9QUS1 whole entry)
Description: Activation of rat CAR expressed in rat hepatocytes coexpressing CYP2B1 at 100 uM after 24 hrs by dual luciferase reporter gene assay relative to control. The format is ADME, cell-based, Hepatocyte. Conditions: rat hepatocytes expressing rat CAR and coexpressing CYP2B1, read-out: FC.

Data set [8] concerns the target T7, CYP2B1 mRNA (CAR activation) (Rattus norvegicus, UniProt Q9QUS1).
T7 sequence (Q9QUS1 whole entry): T2 sequence (Q9QUS1 whole entry)
Kind of data set: Activation of CAR in rat hepatocytes assessed as upregulation of CYP2B1 mRNA expression at 100 uM after 24 hrs by RT-PCR analysis relative to control. Format: ADME, cell-based, Hepatocyte. Conditions: read-out: FC.

Data set [9] deals with T3, Nuclear receptor subfamily 1 group I member 2. Description: Activation of human PXR expressed in human HepG2 cells coexpressing CYP3A4 at 10 uM after 24 hrs by dual luciferase reporter gene assay relative to control. Conditions: hepg2, 24 h.
For data set [10] the target is unchanged. Description: Activation of human PXR expressed in rat hepatocytes coexpressing CYP3A4 at 10 uM after 24 hrs by dual luciferase reporter gene assay relative to control.
In data set [11] the target is T8, PXR (CYP3A4 reporter) (Rattus norvegicus, UniProt Q9R1A7).
T8 sequence (Q9R1A7 whole entry): T4 sequence (Q9R1A7 whole entry)
Kind of data set: Activation of rat PXR expressed in rat hepatocytes coexpressing CYP3A4 at 10 uM after 24 hrs by dual luciferase reporter gene assay relative to control. Conditions: rat hepatocytes expressing rat PXR and coexpressing CYP3A4.

Data set [12] has as its target T8, PXR (CYP3A4 reporter). Description: Activation of rat PXR expressed in human HepG2 cells coexpressing CYP3A4 at 0.1 to 10 uM after 24 hrs by dual luciferase reporter gene assay relative to control. Conditions: human HepG2 cells expressing rat PXR and coexpressing CYP3A4.

In the case of `Clc1ccc(-c2nc3sccn3c2/C=N/OCc2ccc(Cl)c(Cl)c2)cc1`, the Activity entry in [1] was “Active”; in data set [2] it was “Not Active”.
As to `Clc1cnc(Oc2ccc(Oc3ncc(Cl)cc3Cl)cc2)c(Cl)c1`, the Activity entry in data set [3] and in data set [4] was “Not Active” each time.
Turning to `CC(=O)N1CCN(c2ccc(OCC3COC(Cn4ccnc4)(c4ccc(Cl)cc4Cl)O3)cc2)CC1` (stereo not drawn) [KETOCONAZOLE], the “inhibition (INH)” value in data set [5] and in data set [6] was “Active” in each case.
Consider `CCC1(c2ccccc2)C(=O)NC(=O)NC1=O` [PHENOBARBITAL SODIUM], for which the fold induction at 24 h, 100 µM in data set [7] was determined as 12; at CAR (CYP2B1 reporter) it was 9; in data set [8], 48.
For `CC(=O)[C@H]1[C@H](C#N)C[C@H]2[C@@H]3CC=C4C[C@@H](O)CC[C@]4(C)[C@H]3CC[C@@]21C` [PREGNENOLONE CARBONITRILE], the Activity entry in [9] and in data set [10] was “Not Active” throughout. Moreover, the fold induction at 24 h, 10 µM at PXR (CYP3A4 reporter) [11] was 9; on PXR (CYP3A4 reporter) [12], 19.
